Results published in ChEMBL document CHEMBL4393707, “Synthesis and evaluation of new quinazolin-4(3H)-one derivatives as potent antibacterial agents against multidrug resistant Staphylococcus aureus and Mycobacterium tuberculosis” (Eur J Med Chem, 2019).
≈ marks a conversion by molar mass, not a printed value. Calls of active or inactive are those of the source. The calls are words filed in the database; no cut-off is given here.

Tests used:
Staphylococcus aureus [1] = assay: Antibacterial activity against methicillin-resistant Staphylococcus aureus NR10194 incubated for 16 to 18 hrs by broth microdilution assay; format: functional
Staphylococcus aureus [2] = assay: Antibacterial activity against methicillin-resistant Staphylococcus aureus NR10129 incubated for 16 to 18 hrs by broth microdilution assay; format: functional
Staphylococcus aureus [3] = assay: Antibacterial activity against methicillin-resistant Staphylococcus aureus NR10193 incubated for 16 to 18 hrs by broth microdilution assay; format: functional
Staphylococcus aureus [4] = assay: Antibacterial activity against vancomycin-resistant Staphylococcus aureus VRS1 incubated for 16 to 18 hrs by broth microdilution assay; format: functional
Staphylococcus aureus [5] = assay: Antibacterial activity against Staphylococcus aureus ATCC 29213 incubated for 16 to 18 hrs by broth microdilution assay; format: functional
Staphylococcus aureus [6] = assay: Antibacterial activity against methicillin-susceptible Staphylococcus aureus ATCC 29213 incubated for 16 to 18 hrs by broth microdilution assay; format: functional
Staphylococcus aureus [7] = assay: Antibacterial activity against methicillin-resistant Staphylococcus aureus NR10191 incubated for 16 to 18 hrs by broth microdilution assay; format: functional
Staphylococcus aureus [8] = assay: Antibacterial activity against methicillin-resistant Staphylococcus aureus NR100 incubated for 16 to 18 hrs by broth microdilution assay; format: functional
Staphylococcus aureus [9] = assay: Antibacterial activity against vancomycin-resistant Staphylococcus aureus VRS4 incubated for 16 to 18 hrs by broth microdilution assay; format: functional
Staphylococcus aureus [10] = assay: Antibacterial activity against vancomycin-resistant Staphylococcus aureus VRS12 incubated for 16 to 18 hrs by broth microdilution assay; format: functional
Staphylococcus aureus [11] = assay: Antibacterial activity against methicillin-resistant Staphylococcus aureus NR119 incubated for 16 to 18 hrs by broth microdilution assay; format: functional
Staphylococcus aureus [12] = assay: Antibacterial activity against methicillin-resistant Staphylococcus aureus NR10186 incubated for 16 to 18 hrs by broth microdilution assay; format: functional
Staphylococcus aureus [13] = assay: Antibacterial activity against methicillin-resistant Staphylococcus aureus NR10198 incubated for 16 to 18 hrs by broth microdilution assay; format: functional
Staphylococcus aureus [14] = assay: Antibacterial activity against methicillin-resistant Staphylococcus aureus NR10192 incubated for 16 to 18 hrs by broth microdilution assay; format: functional
[15] = Cytotoxicity against African green monkey Vero cells assessed as reduction in cell viability after 72 hrs by MTT assay; format: cell-based; conditions: chlorocebus sabaeus
Klebsiella pneumoniae = assay: Antibacterial activity against Klebsiella pneumoniae ATCC BAA-1705 incubated for 16 to 18 hrs by broth microdilution assay; format: functional
Acinetobacter baumannii = assay: Antibacterial activity against Acinetobacter baumannii BAA1605 incubated for 16 to 18 hrs by broth microdilution assay; format: functional
Escherichia coli = assay: Antibacterial activity against Escherichia coli ATCC 25922 incubated for 16 to 18 hrs by broth microdilution assay; format: functional
Pseudomonas aeruginosa = assay: Antibacterial activity against Pseudomonas aeruginosa ATCC 27853 incubated for 16 to 18 hrs by broth microdilution assay; format: functional
[16] = system: Mycobacterium tuberculosis; assay: Antitubercular activity against Mycobacterium tuberculosis H37Rv after 7 days by resazurin dye based assay; format: functional; conditions: 168 h
[17] = Selectivity index, ratio of CC50 for African green monkey Vero cells to MIC for Mycobacterium tuberculosis H37Rv; format: toxicity; conditions: read-out: Selectivity Index
Staphylococcus aureus [18] = assay: Antibacterial activity against Staphylococcus aureus ATCC 29213 assessed as time required to increase 1 log10 CFU at 10 times MIC incubated for 1 hr followed by compound washout and measured at 1 hr intervals (reference value: 2 hrs); format: functional
Staphylococcus aureus [19] = assay: Antibacterial activity against Staphylococcus aureus ATCC 29213 assessed as post antibiotic effect time at MIC incubated for 1 hr followed by compound washout and measured at 1 hr intervals (reference value: 0 hrs); format: functional
Staphylococcus aureus [20] = assay: Antibiofilm activity against Staphylococcus aureus ATCC 29213 at 10 times MIC incubated 48 hrs by crystal violet staining based assay relative to control; format: functional
Staphylococcus aureus [21] = assay: Antibacterial activity against Staphylococcus aureus ATCC 29213 assessed as post antibiotic effect time at 10 times MIC incubated for 1 hr followed by compound washout and measured at 1 hr intervals (reference value: 0 hrs); format: functional
Staphylococcus aureus [22] = assay: Antibacterial activity against Staphylococcus aureus ATCC 29213 assessed as time required to increase 1 log10 CFU at MIC incubated for 1 hr followed by compound washout and measured at 1 hr intervals (reference value: 2 hrs); format: functional
[23] = Selectivity index, ratio of CC50 for African green monkey Vero cells to MIC for Staphylococcus aureus ATCC 29213; format: toxicity; conditions: read-out: Selectivity Index
Staphylococcus aureus [24] = assay: Antimicrobial activity against Staphylococcus aureus ATCC 29213 infected in BALB/c mouse model of neutropenic thigh infection assessed reduction in bacterial levels in thigh at 25 mg/kg, ip administered 3 hrs post infection twice at interval of 3 hrs between injections and measured after 24 hrs; format: functional, organism-based

Compound | MIC (Staphylococcus aureus [5]) | CC50 at 72 h [15] | MIC (Klebsiella pneumoniae) | MIC (Acinetobacter baumannii) | MIC (Escherichia coli) | MIC (Pseudomonas aeruginosa) | MIC [16] | selectivity ratio [17] | other results
C[C@@H](O)[C@H]1C(=O)N2C(C(=O)O)=C(S[C@@H]3CN[C@H](C(=O)N(C)C)C3)[C@H](C)[C@H]12 [MEROPENEM] | 0.25 µg/mL (≈ 0.652 µM) | – | – | – | – | – | – | – | MIC (Staphylococcus aureus [1]): 0.5 µg/mL (≈ 1.3 µM); MIC (Staphylococcus aureus [2]): 16 µg/mL (≈ 41.7 µM); MIC (Staphylococcus aureus [3]): 32 µg/mL (≈ 83.4 µM); MIC (Staphylococcus aureus [4]): > 64 µg/mL; MIC (Staphylococcus aureus [6]): < 0.5 µg/mL; MIC (Staphylococcus aureus [7]): > 64 µg/mL; MIC (Staphylococcus aureus [8]): > 64 µg/mL; MIC (Staphylococcus aureus [9]): > 64 µg/mL; MIC (Staphylococcus aureus [10]): > 64 µg/mL; MIC (Staphylococcus aureus [11]): > 64 µg/mL; MIC (Staphylococcus aureus [12]): 16 to 32 µg/mL (≈ 41.7 to 83.4 µM); MIC (Staphylococcus aureus [13]): 32 µg/mL (≈ 83.4 µM); MIC (Staphylococcus aureus [14]): 4 to 8 µg/mL (≈ 10.4 to 20.9 µM)
Cc1nc2ccc(OCc3cn(-c4cccc(Cl)c4)nn3)cc2c(=O)n1-c1ccccc1 | > 64 µg/mL | > 100 µg/mL | > 64 µg/mL | > 64 µg/mL | > 64 µg/mL | > 64 µg/mL | 16 µg/mL (≈ 36 µM) | > 6.25 | –
C[C@H]1COc2c(N3CCN(C)CC3)c(F)cc3c(=O)c(C(=O)O)cn1c23.C[C@H]1COc2c(N3CCN(C)CC3)c(F)cc3c(=O)c(C(=O)O)cn1c23.O [LEVOFLOXACIN] | 0.125 to 0.25 µg/mL | – | 64 µg/mL | – | – | 0.5 µg/mL | – | – | MIC (Staphylococcus aureus [1]): 0.5 µg/mL; Time (Staphylococcus aureus [18]): 3 h; MIC (Staphylococcus aureus [2]): 0.5 µg/mL; MIC (Staphylococcus aureus [3]): 32 µg/mL; MIC (Staphylococcus aureus [4]): 32 µg/mL; MIC (Staphylococcus aureus [6]): < 0.5 µg/mL; Time (Staphylococcus aureus [19]): 1 h; MIC (Staphylococcus aureus [7]): 16 to 32 µg/mL; MIC (Staphylococcus aureus [8]): < 0.5 µg/mL; Activity (Staphylococcus aureus [20]): 30.6%; MIC (Staphylococcus aureus [9]): > 64 µg/mL; Time (Staphylococcus aureus [21]): 1 h; MIC (Staphylococcus aureus [10]): 32 to 64 µg/mL; MIC (Staphylococcus aureus [11]): 16 µg/mL; Time (Staphylococcus aureus [22]): 3 h; MIC (Staphylococcus aureus [12]): 4 to 8 µg/mL; MIC (Staphylococcus aureus [13]): 32 µg/mL; MIC (Staphylococcus aureus [14]): 4 to 8 µg/mL
N#Cc1ccc(/C=C/c2nc3ncccc3c(=O)n2-c2ccc(S)cc2)cc1 | 2 µg/mL (≈ 5.23 µM) | > 10 µg/mL | > 64 µg/mL | > 64 µg/mL | > 64 µg/mL | > 64 µg/mL | > 64 µg/mL | – | selectivity ratio [23]: > 5
Cc1nc2cc(-c3ccc(F)cc3)ccc2c(=O)n1-c1cccc(Cl)c1 | > 64 µg/mL | > 15 µg/mL | > 64 µg/mL | > 64 µg/mL | > 64 µg/mL | > 64 µg/mL | 16 µg/mL (≈ 43.9 µM) | > 0.93 | –
Cc1nc2ccc(OCc3cn(-c4ccc(Cl)cc4)nn3)cc2c(=O)n1-c1ccccc1 | > 64 µg/mL | > 33.3 µg/mL | > 64 µg/mL | > 64 µg/mL | > 64 µg/mL | > 64 µg/mL | 16 µg/mL (≈ 36 µM) | > 2.08 | –
Cc1nc2cc(-c3ccccc3)ccc2c(=O)n1-c1cccc(Cl)c1 | > 64 µg/mL | 12.5 µg/mL (≈ 36 µM) | > 64 µg/mL | > 64 µg/mL | > 64 µg/mL | > 64 µg/mL | 16 µg/mL (≈ 46.1 µM) | 0.78 | –
C#CCNc1ccc2c(=O)n(-c3ccccc3)c(C)nc2c1 | > 64 µg/mL | > 100 µg/mL | > 64 µg/mL | > 64 µg/mL | > 64 µg/mL | > 64 µg/mL | 4 µg/mL (≈ 13.8 µM) | > 25 | –
CN[C@H](CC(C)C)C(=O)N[C@H]1C(=O)N[C@@H](CC(N)=O)C(=O)N[C@H]2C(=O)N[C@H]3C(=O)N[C@H](C(=O)N[C@H](C(=O)O)c4cc(O)cc(O)c4-c4cc3ccc4O)[C@H](O)c3ccc(c(Cl)c3)Oc3cc2cc(c3O[C@@H]2O[C@H](CO)[C@@H](O)[C@H](O)[C@H]2O[C@H]2C[C@](C)(N)[C@H](O)[C@H](C)O2)Oc2ccc(cc2Cl)[C@H]1O [VANCOMYCIN] | – | – | – | – | – | – | – | – | Time (Staphylococcus aureus [18]): 4 h; MIC (Staphylococcus aureus [4]): > 64 µg/mL; Time (Staphylococcus aureus [19]): 1 h; Activity (Staphylococcus aureus [20]): 7.7%; MIC (Staphylococcus aureus [9]): > 64 µg/mL; Time (Staphylococcus aureus [21]): 2 h; MIC (Staphylococcus aureus [10]): > 64 µg/mL; Time (Staphylococcus aureus [22]): 3 h; Activity (Staphylococcus aureus [24]): Active
COc1cc(-n2c(/C=C/c3ccc(C#N)cc3)nc3ncccc3c2=O)cc(OC)c1OC | 64 µg/mL (≈ 145 µM) | – | > 64 µg/mL | > 64 µg/mL | > 64 µg/mL | > 64 µg/mL | 64 µg/mL (≈ 145 µM) | – | –
C#CCOc1cccc(-n2c(/C=C/c3ccc(C#N)cc3)nc3cccc(F)c3c2=O)c1 | 0.5 µg/mL (≈ 1.19 µM) | 5 to 10 µg/mL (≈ 11.9 to 23.7 µM) | > 64 µg/mL | > 64 µg/mL | > 64 µg/mL | > 64 µg/mL | 2 µg/mL (≈ 4.75 µM) | > 5 | selectivity ratio [23]: > 10
